# According to US20240245673A1, “Papain-like protease (PLpro) inhibitors” (Pfizer Inc., priority 2022, published 2024):
# Biological target: SARS-CoV-2 Papain like protease (PLpro) (Severe acute respiratory syndrome coronavirus 2 (2019-nCoV) (SARS-CoV-2), UniProt P0DTD1)
# Assay: Papain Like Protease (PLpro) biochemical assay with profluorogenic substrate Z-RLRGG-AMC
# Settings: IC50 (μM), SARS-CoV-2 PLpro 6.25 nM, 25 μM Z-RLRGG-AMC substrate, 60 minute reaction
row,Compound,IC50
1,"CCn1cc(-c2cc(C(C)NC(=O)c3ccccc3C)c3ccccc3n2)cn1 (stereo not drawn) [Example 110, N-{1-[2-(1-ethyl-1H-pyrazol-4-yl)quinolin-4-yl]ethyl}-2-methylbenzamide]",0.224 µM

# Same assay, conditions: SARS-CoV-2 PLpro 6.25 nM, 25 μM Z-RLRGG-AMC substrate, 60 minute reaction; read-out: IC50
row,Compound,IC50
1,"Cc1ccc(CN)cc1C(=O)NC(C)c1cc(-c2cnn(C)c2)cc2ccccc12 (stereo not drawn) [Example 3, 5-(aminomethyl)-2-methyl-N-(1-(3-(1-methyl-1H-pyrazol-4-yl)naphthalen-1-yl)ethyl)benzamide]",0.048 µM
2,"Cc1ccccc1C(=O)NC(C)c1cc(C2CCOCC2)nc2ccccc12 (stereo in doubt) [Example 155, 2-methyl-N-{(1R)-1-[2-(oxan-4-yl)quinolin-4-yl]ethyl}benzamide]",0.581 µM
3,"Cc1cc(COCc2cscn2)ccc1C(=O)NC1(c2cc(-c3cc(C(=O)N(C)CC(C)(C)O)n[nH]3)nc3ccccc23)CC1 [Example 357, N-(2-hydroxy-2-methylpropyl)-N-methyl-5-(4-(1-(2-methyl-4-((thiazol-4-ylmethoxy)methyl)benzamido)cyclopropyl)quinolin-2-yl)-1H-pyrazole-3-carboxamide]",< 0.001 µM
4,"C[C@@H](NC(=O)c1ccccc1CCC(=O)NNC(=O)[C@H]1O[C@@H]1C(=O)O)c1cc(-c2cnn(C)c2)nc2ccccc12 [Example 219, (2S,3S)-3-(2-(3-(2-(((R)-1-(2-(1-methyl-1H-pyrazol-4-yl)quinolin-4-yl)ethyl)carbamoyl)phenyl)propanoyl)hydrazine-1-carbonyl)oxirane-2-carboxylic acid]",0.001 µM
5,"COC(=O)c1cc(-c2cc([C@@H](C)NC(=O)c3cc(CN)ccc3C)c3ccccc3n2)n(C)c1 [Example 263, methyl(R)-5-(4-(1-(5-(aminomethyl)-2-methylbenzamido)ethyl)quinolin-2-yl)-1-methyl-1H-pyrrole-3-carboxylate]",0.231 µM
6,Cc1cc(C(=O)NC2(c3ncc[nH]3)CC2)ccc1C(=O)N[C@H](C)c1cc(-c2cnn(C)c2)nc2ccccc12 [Example 242],0.006 µM
7,"Cc1ccccc1C(=O)NC(C)c1cc(NCC2CCOCC2)nc2ccccc12 (stereo not drawn) [Example 141, 2-methyl-N-[1-(2-{[(oxan-4-yl)methyl]amino}quinolin-4-yl)ethyl]benzamide]",0.778 µM
8,Cc1ccc(N2CCCC(N)C2=O)cc1C(=O)N[C@H](C)c1cc(-c2cnn(C)c2)nc2ccccc12 (stereo partly drawn) [Example 235],0.091 µM
9,"COC[C@H](OCc1cocn1)c1ccc(C(=O)NC2(c3cc(-c4cc(C(=O)N(C)C)n[nH]4)cc4ncccc34)CC2)c(C)c1 (single isomer, unassigned) [Example 359]",< 0.001 µM
10,"Cc1ccccc1C(=O)NC(C)c1cc(CN2CCCC2=O)nc2ccccc12 (stereo in doubt) [Example 156, 2-methyl-N-[(1R)-1-{2-[(2-oxopyrrolidin-1-yl)-methyl]quinolin-4-yl}ethyl]benzamide]",7.22 µM
11,COc1c(-c2cnn(C)c2)cc(C(C)NC(=O)c2cc(CN)ccc2C)c2ccccc12 (stereo not drawn) [Example 205],0.043 µM
12,"Cc1ccc(CN)cc1C(=O)N[C@H](C)c1cc(-n2cnnc2)nc2ccccc12 [Example 16, (R)—N-(1-(2-(4H-1,2,4-triazol-4-yl)quinolin-4-yl)ethyl)-5-(aminomethyl)-2-methylbenzamide]",0.149 µM
13,"COCc1cc(-c2cc(C(C)NC(=O)c3ccccc3C)c3ccccc3n2)cs1 (stereo not drawn) [Example 106, N-(1-{2-[5-(methoxymethyl)thiophen-3-yl]quinolin-4-yl}ethyl)-2-methylbenzamide]",0.241 µM
14,"COC(=O)/C=C/C(=O)NNC(=O)CCc1ccccc1C(=O)NC(C)c1cc(-c2cnn(C)c2)cc2ccccc12 (stereo not drawn) [Example 64, methyl (E)-4-(2-(3-(2-((1-(3-(1-methyl-1H-pyrazol-4-yl)naphthalen-1-yl)ethyl)carbamoyl)phenyl)propanoyl)hydrazineyl)-4-oxobut-2-enoate]",0.005 µM
15,"Cc1ccc(NC(=O)[C@H]2CCCCN2)cc1C(=O)NC(C)c1cc(-c2cn[nH]c2)cc2ccccc12 (stereo partly drawn) [Example 51, (2R)—N-(3-((1-(3-(1H-pyrazol-4-yl)naphthalen-1-yl)ethyl)carbamoyl)-4-methylphenyl)piperidine-2-carboxamide]",0.019 µM
16,"CNCc1ccc(C)c(C(=O)NC(C)c2cc(-c3cnn(C)c3)cc3ccccc23)c1 (stereo not drawn) [Example 10, 2-methyl-N-(1-(3-(1-methyl-1H-pyrazol-4-yl)naphthalen-1-yl)ethyl)-5-((methylamino)methyl)benzamide]",0.033 µM
17,"Cc1ccc(CN)cc1C(=O)NC(C)c1cc(-c2cnn(C)c2)c(O)c2ccccc12 (stereo not drawn) [Example 217, 5-(aminomethyl)-N-(1-(4-hydroxy-3-(1-methyl-1H-pyrazol-4-yl)naphthalen-1-yl)ethyl)-2-methylbenzamide]",0.119 µM
18,"Cc1ccccc1C(=O)NC(C)c1cc(-c2cn(C)nc2C)nc2ccccc12 (stereo not drawn) [Example 126, N-{1-[2-(1,3-dimethyl-1H-pyrazol-4-yl)quinolin-4-yl]ethyl}-2-methylbenzamide]",0.845 µM

row,Compound,IC50
1,"Cc1cc(C(=O)NC2(c3cscn3)CC2)ccc1C(=O)N[C@H](C)c1cc(-c2cnn(C)c2)nc2ccccc12 [Example 314, (R)-2-methyl-N1-(1-(2-(1-methyl-1H-pyrazol-4-yl)quinolin-4-yl)ethyl)-N4-(1-(thiazol-4-yl)cyclopropyl)terephthalamide]",0.002 µM
2,"Cc1ccccc1C(=O)NC(C)c1cc(-c2ccsc2)nc2ccccc12 (stereo not drawn) [Example 119, 2-methyl-N-{1-[2-(thiophen-3-yl)quinolin-4-yl]ethyl} benzamide]",0.244 µM
3,"Cc1ccc(NC(=O)[C@H]2CCCCN2)cc1C(=O)N[C@H](C)c1cc(-c2ccn[nH]2)cc2ccccc12 (single isomer, unassigned) [Example 69]",0.908 µM
4,"Cc1cc(C(=O)NCc2ncoc2C)ccc1C(=O)N[C@H](C)c1cc(-c2cnn(C)c2)nc2ccccc12 [Example 317, (R)-2-methyl-N1-(1-(2-(1-methyl-1H-pyrazol-4-yl)quinolin-4-yl)ethyl)-N4-((5-methyloxazol-4-yl)methyl)terephthalamide]",0.006 µM
5,"Cc1ccc(NC(=O)[C@H]2CCCCN2)cc1C(=O)N[C@H](C)c1cc(-c2cnn(C)c2)cc2ccccc12 (single isomer, unassigned) [Example 67]",0.272 µM
6,"Cc1cc(CNCc2cncn2C)ccc1C(=O)N[C@H](C)c1cc(-c2cnn(C)c2)nc2ccccc12 [Example 221, (R)-2-methyl-4-((((1-methyl-1H-imidazol-5-yl)methyl)amino)methyl)-N-(1-(2-(1-methyl-1H-pyrazol-4-yl)quinolin-4-yl)ethyl)benzamide]",0.015 µM
7,Cc1ccccc1C(=O)NC(C)c1cc(NCC2CCN(S(C)(=O)=O)CC2)nc2ccccc12 (stereo not drawn) [Example 150],1.07 µM
8,"Cc1ccccc1C(=O)NC(C)c1cc(NCc2cocn2)nc2ccccc12 (stereo not drawn) [Example 138, 2-methyl-N-[1-(2-{[(1,3-oxazol-4-yl)methyl]amino}-quinolin-4-yl)ethyl]benzamide]",0.944 µM
9,"CNC(=O)/C=C/C(=O)NNC(=O)CCc1ccccc1C(=O)N[C@H](C)c1cc(-c2cnn(C)c2)nc2ccccc12 [Example 223, (R,E)-N-(1-(2-(1-methyl-1H-pyrazol-4-yl)quinolin-4-yl)ethyl)-2-(3-(2-(4-(methylamino)-4-oxobut-2-enoyl)hydrazineyl)-3-oxopropyl)benzamide]",0.058 µM
10,"Cc1ccc(CN)cc1C(=O)N[C@H](C)c1cc(-c2cc(C(=O)N(C)C)c[nH]2)nc2ccccc12 [Example 56, 5-{4-[(1R)-1-{[5-(aminomethyl)-2-methylphenyl]formamido}ethyl]quinolin-2-yl}-N,N-dimethyl-1H-pyrrole-3-carboxamide]",0.02 µM
11,"Cc1cc(COCc2ccccn2)ccc1C(=O)NC1(c2cc(-c3cnn(CC(=O)N(C)C)c3)nc3ccccc23)CC1 [Example 366, N-(1-(2-(1-(2-(dimethylamino)-2-oxoethyl)-1H-pyrazol-4-yl)quinolin-4-yl)cyclopropyl)-2-methyl-4-((pyridin-2-ylmethoxy)methyl)benzamide]",< 0.001 µM
12,"Cc1cc(COCc2cocn2)ccc1C(=O)NC1(c2cc(-c3cc(C(=O)N(C)C)n[nH]3)nc3ccccc23)CC1 [Example 346, N,N-dimethyl-5-(4-(1-(2-methyl-4-((oxazol-4-ylmethoxy)methyl)benzamido)cyclopropyl)quinolin-2-yl)-1H-pyrazole-3-carboxamide]",< 0.001 µM
13,"Cc1cc(CC(=O)O)ccc1C(=O)N[C@H](C)c1cc(-c2cnn(C)c2)nc2ccccc12 [Example 200, (R)-2-(3-methyl-4-((1-(2-(1-methyl-1H-pyrazol-4-yl)quinolin-4-yl)ethyl)carbamoyl)phenyl)acetic acid]",0.792 µM
14,"Cc1ccc(N2CCN(C)CC2)cc1C(=O)NC(C)c1cc(-c2cc(C(=O)O)c[nH]2)cc2ccccc12 (stereo not drawn) [Example 216, 5-(4-(1-(2-methyl-5-(4-methylpiperazin-1-yl)benzamido)ethyl)naphthalen-2-yl)-1H-pyrrole-3-carboxylic acid]",0.012 µM
15,"Cc1cc(COCc2cocn2)ccc1C(=O)NC1(c2cc(-c3cnn(C)c3)nc3ccccc23)CC1 [Example 344, 2-methyl-N-(1-(2-(1-methyl-1H-pyrazol-4-yl)quinolin-4-yl)cyclopropyl)-4-((oxazol-4-ylmethoxy)methyl)benzamide]",< 0.001 µM
16,"Cc1ccc(CN)cc1C(=O)N[C@H](C)c1cc(-c2cc(C(=O)O)c[nH]2)nc2ccccc12 [Example 20, (R)-5-(4-(1-(5-(aminomethyl)-2-methylbenzamido)ethyl)quinolin-2-yl)-1H-pyrrole-3-carboxylic acid]",0.041 µM
17,"Cc1cc(CNC(=O)c2ncc[nH]2)ccc1C(=O)NC(C)c1cc(-c2cnn(C)c2)cc2ccccc12 (stereo not drawn) [Example 62, N-(3-methyl-4-((1-(3-(1-methyl-1H-pyrazol-4-yl)naphthalen-1-yl)ethyl)carbamoyl)benzyl)-1H-imidazole-2-carboxamide]",0.039 µM
